Measurements as given in patent US10005758B2, “Process for the preparation of 3-(3-chloro-1H-pyrazol-1-yl)pyridine” (Dow AgroSciences LLC, priority 2014, dated 2018).

Legend:
[1] = tested on: Green Peach Aphid (Myzus persicae) (MYZUPE); assay: Bioassay on Green Peach Aphid (GPA), foliar spray on infested cabbage seedlings; assay type: in vivo; settings: 72 h, 200 ppm foliar spray on cabbage, live aphids counted after three days, read-out: MYZUPE rating (% Mortality; Abbott corrected % control)
Experimental: Example A Bioassays on Green Peach Aphid (“GPA”) (Myzus persicae) (MYZUPE.)
Several molecules disclosed herein were tested against GPA using procedures described below.
Cabbage seedling grown in 3-in pots, with 2-3 small (3-5 cm) true leaves, were used as test substrate. The seedlings were infested with […] (wingless adult and nymph stages) one day prior to chemical application. Four pots with individual seedlings were used for each treatment. Test compounds (2 mg) were dissolved in 2 mL of acetone/MeOH (1:1) solvent, forming stock solutions of 1000 ppm test compound. The stock solutions were diluted 5× with 0.025% Tween 20 in water to obtain the solution at 200 ppm test compound. A hand-held aspirator-type sprayer was used for spraying a solution to both sides of the cabbage leaves until runoff. Reference plants (solvent check) were sprayed with the diluent only containing […] acetone/MeOH (1:1) solvent. Treated plants were held in a holding room for three days at approximately 25° C. and ambient relative humidity (RH) prior to grading. Evaluation was conducted by counting the number of live aphids per plant under a microscope. Percent Control was measured by using Abbott's correction formula (W. S. Abbott, “A Method of Computing the Effectiveness of an Insecticide” J. Econ. Entomol 18 (1925), pp. 265-267) as follows. Corrected % Control=100*(X−Y)/X […]

[2] = tested on: Sweetpotato Whitefly Crawler (Bemisia tabaci) (BEMITA); assay: Bioassay on Sweetpotato Whitefly Crawler, foliar spray on infested cotton plants; assay type: in vivo; settings: 200 ppm foliar spray on cotton, live nymphs counted after 8-9 days, read-out: BEMITA rating (% Mortality; Abbott corrected % control)
Description: Example B Bioassays on Sweetpotato Whitefly Crawler (Bemisia tabaci) (BEMITA.)
Cotton plants grown in 3-inch pots, with 1 small (3-5 cm) true leaf, were used at test substrate. The plants were placed in a room with whitely adults. Adults were allowed to deposit eggs for 2-3 days. After a 2-3 day egg-laying period, plants were taken from the adult whitefly room. Adults were blown off leaves using a hand-held Devilbliss sprayer (23 psi). Plants with egg infestation (100-300 eggs per plant) were placed in a holding room for 5-6 days at 82° F. and 50% RH for egg hatch and crawler stage to develop. Four cotton plants were used for each treatment. Compounds (2 mg) were dissolved in 1 mL of acetone solvent, forming stock solutions of 2000 ppm. The stock solutions were diluted 10× with 0.025% Tween 20 in water to obtain a test solution at 200 ppm. A hand-held Devilbliss sprayer was used for spraying a solution to both sides of cotton leaf until runoff. Reference plants (solvent check) were sprayed with the diluent only. Treated plants were held in a holding room for 8-9 days at approximately 82° F. and 50% RH prior to grading. Evaluation was conducted by counting the number of live nymphs per plant under a microscope.

Structure (SMILES) | mortality at 200 ppm [1] [%] | mortality at 200 ppm [2] [%]
CCOC(=O)C1CC(=O)NN1c1cccnc1 (stereo not shown) [Example Compound 10a, Ethyl 5-oxo-2-(pyridin-3-yl)pyrazolidine-3-carboxylate] | 0 to 80 | 0 to 80
CCOC(=O)C1CC(Cl)=NN1c1cccnc1 (stereo not shown) [Example Compound 10b, Ethyl 3-chloro-1-(pyridin-3-yl)-4,5-dihydro-1H-pyrazole-5-carboxylate] | 0 to 80 | 0 to 80
